This assay concerns the target T1, Steroid 17-alpha-hydroxylase/17,20 lyase (Rattus norvegicus, UniProt P11715).
T1 sequence (P11715 whole entry): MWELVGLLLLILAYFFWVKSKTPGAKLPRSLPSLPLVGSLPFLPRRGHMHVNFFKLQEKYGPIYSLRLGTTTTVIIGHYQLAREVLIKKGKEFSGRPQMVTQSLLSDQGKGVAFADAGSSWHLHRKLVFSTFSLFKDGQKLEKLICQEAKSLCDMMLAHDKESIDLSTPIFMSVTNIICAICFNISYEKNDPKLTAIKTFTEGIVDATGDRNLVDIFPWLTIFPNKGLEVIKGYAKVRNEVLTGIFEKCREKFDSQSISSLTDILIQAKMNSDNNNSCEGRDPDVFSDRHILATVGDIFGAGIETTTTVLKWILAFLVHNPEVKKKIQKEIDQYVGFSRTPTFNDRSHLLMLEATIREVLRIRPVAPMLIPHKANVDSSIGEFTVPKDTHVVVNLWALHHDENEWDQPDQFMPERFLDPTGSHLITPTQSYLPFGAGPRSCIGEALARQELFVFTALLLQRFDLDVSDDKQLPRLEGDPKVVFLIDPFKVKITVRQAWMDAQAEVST
Briefly: Inhibition Assay. From the text: If a weakly binding metal-binding group is utilized, potency may be suboptimal. On the other hand, if a very tightly binding metal-binding group is utilized, selectivity for the target enzyme versus related metalloenzymes may be suboptimal. The lack of optimal selectivity can be a cause for clinical toxicity due to unintended inhibition of these off-target metalloenzymes. […] It is believed that this off-target inhibition is caused primarily by the indiscriminate binding of the currently utilized 1-imidazole to iron in the active site of CYP2C9, CYP2C19 and CYP3A4.

For orientation: IC50 means the concentration that gives 50% inhibition. Higher therefore signals weaker potency in that assay.

In turn, `CC(C)C(O)(c1ccc2cc(OC(F)F)c(OC(F)F)cc2c1)c1c[nH]nn1` (stereo unspecified) [US8623892, 3] returned an IC50 of 0.22 µM. This lies in the sub-micromolar range.

For the origin of these results see BindingDB's records for patent US8623892 (Viamet Pharmaceuticals, 2014).
